{
  "source": "patent US20070173492A1",
  "about": "“1,2-Diaza-dibenzo[e,h]azulenes for the treatment of central nervous system diseases and disorders” (Pliva-Istrazivacki Institut d.o.o., priority 2003, published 2007)",
  "key": {"5-HT2A receptor": {"target": "T1, 5-HT2A receptor (Homo sapiens, UniProt P28223)", "T1 construct": "expressed in transfected cells; alternatively human cortex tissue", "T1 sequence (P28223 whole entry)": "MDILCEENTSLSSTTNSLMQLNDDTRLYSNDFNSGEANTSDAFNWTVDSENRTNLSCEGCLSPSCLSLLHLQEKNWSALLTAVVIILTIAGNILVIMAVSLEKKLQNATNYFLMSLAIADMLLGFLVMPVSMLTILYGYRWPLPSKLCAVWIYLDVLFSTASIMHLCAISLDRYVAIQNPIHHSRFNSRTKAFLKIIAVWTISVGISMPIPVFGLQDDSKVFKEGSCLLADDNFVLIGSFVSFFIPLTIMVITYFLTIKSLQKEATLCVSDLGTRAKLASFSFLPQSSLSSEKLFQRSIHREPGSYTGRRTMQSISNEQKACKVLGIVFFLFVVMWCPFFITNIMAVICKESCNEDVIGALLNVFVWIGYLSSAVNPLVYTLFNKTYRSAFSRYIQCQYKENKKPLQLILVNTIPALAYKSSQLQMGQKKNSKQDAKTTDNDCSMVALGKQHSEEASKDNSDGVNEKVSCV", "experiment": "radioligand binding assay for 5-HT2A receptor ([3H]-ketanserin)", "conditions": "human cortex or recombinant 5-HT2A receptor expressed in CHO-K1 cells; for IC50: read-out: binding affinity to 5-HT2A serotonin receptor expressed as IC50 value; for Ki: read-out: binding affinity to 5-HT2A serotonin receptor, Ki value", "procedure": "(§1) The effect of the compounds of the present invention on the neurochemical steady state was determined by in vitro investigations such as a radionuclide-marked radioligand binding assay for 5-HT2A (Bonhaus D. W. Br. J. Pharmacol. 1995, 115:622; Saucier C. J. Neurochem. 1997, 68:1998) and 5-HT2C receptors (Wolf W. A. J. Neurochem. 1997, 69:1449), in vitro binding assay for the σ1 receptor (Thomson W. and Donn R. Arthritis Res. 2002, 4: 302-306) and by in vivo investigations in a tail suspension test (Vogel H. G. and Vogel W. H. Drug Discovery and Evaluation Pharmacological Assays, Springer 1997, 304), in amphetamine-induced hyperlocomotion in mice (Millan M. J. et al, 1998 J. Pharmacol. Exp. Ther. 287: 167-186), in a forced swim test in mice (Porsolt R. D. et al. Arch. Int. Pharmacodyn. 1977, 229:327-336), in meta-chlorophenyl piperazine (m-CPP) test on rats (Drug Dev. Res. 1989, 18:119-144), and in apomorphine, tryptamine, norepinephrine (ATN) test in rats (Arch. Int. Pharmacodyn. 1977, 227:238-253).\n(§2) A small concentration of a radioligand having a great affinity for binding to a receptor was incubated with a tissue sample enriched with a certain receptor (1-5 mg of tissue) in a buffered medium (0.2-5 mL). Recombinant human HT2A and HT2C receptors were expressed in CHO-K1 or COS-7 cells and were also used for competitive binding. During incubation the radioligand bound to the receptor. When a binding balance was achieved, the receptors to which the radioligand was bound were separated from those to which said ligand was not bound, and the radioactivity of the receptor/radioligand complex was measured. The interaction of the tested compounds with receptors was tested in competitive binding experiments. Various concentrations of tested compounds were added to the incubation mixture containing a prepared tissue enriched with corresponding receptors and the radioligand. The radioligand binding was inhibited by the test compounds proportionally to the affinity of a certain compound for the receptor and to the concentration of the compound.\nThe radioligand used for the determination of binding to 5-HT2A receptor was [^3H]-ketanserin and the tissue used was human cortex or recombinant 5-HT2A receptor expressed in CHO-K1 cells."}, "5-HT2C receptor": {"target": "T2, 5-HT2C receptor (Homo sapiens, UniProt P28335)", "T2 construct": "expressed in transfected cells; alternatively choroid plexus tissue", "T2 sequence (P28335 33-458)": "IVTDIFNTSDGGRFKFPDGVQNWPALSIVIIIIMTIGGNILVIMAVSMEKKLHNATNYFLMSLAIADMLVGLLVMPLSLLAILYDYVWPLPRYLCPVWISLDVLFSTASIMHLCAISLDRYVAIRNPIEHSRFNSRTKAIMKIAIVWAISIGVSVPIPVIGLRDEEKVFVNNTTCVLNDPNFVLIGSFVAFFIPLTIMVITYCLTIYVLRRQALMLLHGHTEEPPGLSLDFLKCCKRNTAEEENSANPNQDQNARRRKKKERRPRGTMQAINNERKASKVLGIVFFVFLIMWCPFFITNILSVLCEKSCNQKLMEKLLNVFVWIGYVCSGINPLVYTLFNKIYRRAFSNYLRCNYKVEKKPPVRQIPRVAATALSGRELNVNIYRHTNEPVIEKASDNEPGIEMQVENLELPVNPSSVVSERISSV", "experiment": "radioligand binding assay for 5-HT2C receptor ([3H]-mesulergine)", "conditions": "choroid plexus or recombinant 5-HT2C receptor expressed in CHO-K1 cells; for IC50: read-out: binding affinity to 5-HT2C serotonin receptor expressed as IC50 value; for Ki: read-out: binding affinity to 5-HT2C serotonin receptor, Ki value", "procedure": "as §1, §2\nThe radioligand used for the determination of binding to 5-HT2C receptor was [^3H]-mesulergine and the tissue used was choroid plexus or recombinant 5-HT2C receptor expressed in CHO-K1 cells."}},
  "data": [
    {"smiles": "CN(C)CCOCc1n[nH]c2c1-c1ccccc1Oc1ccc(Cl)cc1-2", "note": "[[2-(11-chloro-1H-8-oxa-1,2-diaza-dibenzo[e,h]azulen-3-ylmethoxy)-ethyl]-dimethyl-amine]", "values": [
      {"measurement": "IC50", "setting": "5-HT2A receptor", "value": "< 200", "unit": "nM"},
      {"measurement": "Ki", "setting": "5-HT2A receptor", "value": "< 100", "unit": "nM"},
      {"measurement": "IC50", "setting": "5-HT2C receptor", "value": "< 200", "unit": "nM"},
      {"measurement": "Ki", "setting": "5-HT2C receptor", "value": "< 100", "unit": "nM"}
    ]},
    {"smiles": "CN(C)CCCOCc1n[nH]c2c1-c1ccccc1Sc1ccccc1-2", "note": "[dimethyl-[3-(11H-8-thia-1,2-diaza-dibenzo[e,h]azulen-3-ylmethoxy)-propyl]-amine]", "values": [
      {"measurement": "IC50", "setting": "5-HT2A receptor", "value": "< 200", "unit": "nM"},
      {"measurement": "Ki", "setting": "5-HT2A receptor", "value": "< 100", "unit": "nM"},
      {"measurement": "IC50", "setting": "5-HT2C receptor", "value": "< 200", "unit": "nM"},
      {"measurement": "Ki", "setting": "5-HT2C receptor", "value": "< 100", "unit": "nM"}
    ]},
    {"smiles": "CN(C)CCCOCc1c2c(nn1CCc1ccccc1)-c1ccccc1Sc1ccccc1-2", "note": "[dimethyl-[3-(2-phenethyl-2H-8-thia-1,2-diaza-dibenzo[e,h]azulen-3-ylmethoxy)-propyl]-amine]", "values": [
      {"measurement": "IC50", "setting": "5-HT2A receptor", "value": "< 200", "unit": "nM"},
      {"measurement": "Ki", "setting": "5-HT2A receptor", "value": "< 100", "unit": "nM"},
      {"measurement": "IC50", "setting": "5-HT2C receptor", "value": "< 200", "unit": "nM"},
      {"measurement": "Ki", "setting": "5-HT2C receptor", "value": "< 100", "unit": "nM"}
    ]}
  ]
}
